Measurements from publication PMC6199744, “Development of Chemical Proteomics for the Folateome and Analysis of the Kinetoplastid Folateome” (ACS Infectious Diseases, 2018).
Values joined by “and” are separate entries in the source; they are usually repeats but may differ in a detail not shown here. Equal values may be shown once. Read-outs that look alike come from different tables or passages of the source.

Test system: L. major lysate proteins
Test: Multitargeted bead mixture chemoproteomics, single concentration competition, proteome-wide
Format: binding
Settings: for fold change: vehicle control = 1

SMILES: Nc1nc2[nH]cc(CCc3ccc(C(=O)N[C@@H](CCC(=O)O)C(=O)O)cc3)c2c(=O)[nH]1 [PTX, pemetrexed]
- fold change relative to vehicle control: 1.01 and 1.04 and 0.91
- fold change vs vehicle control: 1.03 and 1.04 and 1
- fold change vs vehicle control (protein CLI00016468.1 KIN[…] PROTEIN-11): 0.68
- fold change vs vehicle control (protein LINJ.03.0240 RIBOSOMAL PROTEIN L38, PUTATIVE): 1.03
- fold change vs vehicle control (protein LINJ.11.0780 40S RIBOSOMAL PROTEIN S21, PUTATIVE): 0.99
- fold change (protein LINJ.11.0960 40S RIBOSOMAL PROTEIN S5): 1.07
- fold change vs vehicle control (protein LINJ.13.0990 […] SUBUNIT 2, PUTATIVE): 1.06
- fold change vs vehicle control (protein LINJ.15.0330 RIBONUCLEOPROTEIN P18, MIT[…], PUTATIVE): 1.08
- fold change (protein LINJ.19.0090 FIBRILLARIN, PUTATIVE): 0.88
- fold change (protein LINJ.21.1790 40S RIBOSOMAL PROTEIN S11, PUTATIVE): 1.08
- fold change relative to vehicle control (protein LINJ.23.0860, 3-KETOACYL-COA THIOLASE, PUTATIVE): 1.16
- fold change relative to vehicle control (protein LINJ.24.2300, 60S RIBOSOMAL PROTEIN L12, PUTATIVE): 0.96
- fold change vs vehicle control (protein LINJ.25.2230 SUCCINYL-COA […] SUBUNIT, PUTATIVE): 0.97
- fold change vs vehicle control (protein LINJ.26.1630 40S RIBOSOMAL PROTEIN S33, PUTATIVE): 0.99
- fold change vs vehicle control (protein LINJ.28.1100 RIBOSOMAL PROTEIN S20, PUTATIVE): 0.99
- fold change relative to vehicle control (protein LINJ.28.1940, R[…] A, 51KDA SUBUNIT, PUTATIVE): 0.99
- fold change (protein LINJ.28.2280 DYNEIN LIGHT CHAIN LC6, FLAGELLAR OUTER ARM, PUTATIVE): 0.87
- fold change (protein LINJ.28.2870 PROTEIN PHOSPHATASE 4 CATALYTIC SUBUNIT, PUTATIVE): 0.97
- fold change relative to vehicle control (protein LINJ.31.1600, CYTOCHROME C OXIDASE VIII (COX VIII), PUTATIVE): 0.89
- fold change relative to vehicle control (protein LINJ.33.1730, CYCLOPHILIN 4, PUTATIVE): 1.47
- fold change vs vehicle control (protein LINJ.34.0670 […]-ATP-ASE SUBUNIT 11, PUTATIVE,19S […]): 0.91
- fold change vs vehicle control (protein LINJ.36.0780 PROTEIN KINASE, PUTATIVE,MITOGEN-ACTIVATED PROTEIN KINASE, PUTATIVE): 0.92
- fold change relative to vehicle control (protein LINJ.36.3960, BASIC TRANSCRIPTION FACTOR 3A, PUTATIVE): 1.33
- fold change relative to vehicle control (protein LINJ.36.4080, HY[…], CONSERVED): 0.93
- fold change (protein LINJ.36.4180 HS1VU COMPLEX P[…]-LIKE): 0.92
- fold change vs vehicle control (protein LINJ.[…] LONG-CHAIN-FATTY-ACID-COA LIGASE, PUTATIVE): 0.9
- fold change (protein LMJF.01.0570 TRICARBOXYLATE CARRIER, PUTATIVE): 0.96
- fold change relative to vehicle control (protein LMJF.03.0200, DELTA-1-PYRROLINE-5-CARBOXYLATE DEHYDROGENASE, PUTATIVE): 1.03
- fold change (protein LMJF.03.0230 LONG CHAIN FATTY ACYL COA SYNTHETASE, PUTATIVE): 0.99
- fold change (protein LMJF.03.0980 […] 2 ALPHA SUBUNIT, PUTATIVE): 0.97
- fold change vs vehicle control (protein LMJF.04.0630 HY[…], CONSERVED): 0.99
- fold change vs vehicle control (protein LMJF.04.1230 actin): 1
- fold change (protein LMJF.05.0100 PHOSPHOPROTEIN PHOSPHATASE, PUTATIVE): 0.71
- fold change (protein LMJF.05.0280 PROTEIN TYROSINE PHOSPHATASE, PUTATIVE): 0.88
- fold change (protein LMJF.05.0510 ATPASE ALPHA SUBUNIT): 1.05
- fold change (protein LMJF.05.1040 STOMATIN-LIKE PROTEIN): 0.94
- fold change (protein LMJF.06.0650 […], PUTATIVE): 0.89
- fold change vs vehicle control (protein LMJF.07.0700 TOPOISOMERASE-RELATED FUNCTION PROTEIN-LIKE PROTEIN): 0.73
- fold change (protein LMJF.07.1000 RNA BINDING PROTEIN-LIKE PROTEIN): 0.93
- fold change relative to vehicle control (protein LMJF.07.1140, PEPTIDE […] REDUCTASE-LIKE): 1.13
- fold change (protein LMJF.08.0510 RIBOSE-PHOSPHATE PYROPHOSPHOKINASE, PUTATIVE): 0.89
- fold change vs vehicle control (protein LMJF.08.0550 T[…]-LIKE PROTEIN): 0.98
- fold change relative to vehicle control (protein LMJF.08.1030, cathepsin L-like protease): 1.04
- fold change vs vehicle control (protein LMJF.08.1100 HY[…], CONSERVED): 0.92
- fold change vs vehicle control (protein LMJF.09.1010 HY[…], CONSERVED): 0.89
- fold change relative to vehicle control (protein LMJF.09.1120, MIT[…] BINDING PROTEIN 2,MRP2, GBP25): 1
- fold change vs vehicle control (protein LMJF.09.1260 HY[…], CONSERVED): 0.97
- fold change (protein LMJF.10.0210 NUCLEOLAR PROTEIN, PUTATIVE): 0.99
- fold change vs vehicle control (protein LMJF.10.0310 PROTEIN TRANSPORT PROTEIN SEC23, PUTATIVE): 1.04
- fold change (protein LMJF.11.0590 3-METHYLCROTONOYL-COA C[…] SUBUNIT, PUTATIVE): 0.95
- fold change relative to vehicle control (protein LMJF.11.0630, AMINOPEPTIDASE, PUTATIVE,METALLO-PEPTIDASE, CLAN MF, FAMILY M17): 1.06
- fold change vs vehicle control (protein LMJF.11.1050 PRETRA[…], ALPHA SUBUNIT, PUTATIVE,SEC61-LIKE (PRETRA[…]) PROTEIN, PUTATIVE): 0.96
- fold change (protein LMJF.11.1160 PROTEIN TRANSPORT PROTEIN SEC31, PUTATIVE): 0.76
- fold change (protein LMJF.12.0030 […]-1 SUBUNIT, PUTATIVE): 0.94
- fold change vs vehicle control (protein LMJF.12.0210 […] SUBUNITTCC1L8 3, PUTATIVE): 0.96
- fold change relative to vehicle control (protein LMJF.12.0530, GLUCOSE-6-PHOSPHATE ISOMERASE): 1.26
- fold change (protein LMJF.12.0630 ALANINE AMINOTRANSFERASE): 0.86
- fold change vs vehicle control (protein LMJF.13.1230 40S RIBOSOMAL PROTEIN S4, PUTATIVE): 1.13
- fold change vs vehicle control (protein LMJF.14.0310 […] 3 SUBUNIT, PUTATIVE): 1.03
- fold change (protein LMJF.14.0660 FATTY ACID ELONGASE, PUTATIVE): 0.92
- fold change (protein LMJF.14.0670 FATTY ACID ELONGASE, PUTATIVE): 0.87
- fold change vs vehicle control (protein LMJF.14.0680 FATTY ACID ELONGASE, PUTATIVE): 1.08
- fold change (protein LMJF.14.0990 ADP/ATP MIT[…]-LIKE PROTEIN): 1.14
- fold change vs vehicle control (protein LMJF.14.1160 ENOLASE): 1.01
- fold change (protein LMJF.14.1440 HY[…], CONSERVED (cytoskeleton associated protein, putative)): 0.74
